Results as given in publication PMC10223898 (Pharmaceuticals, 2023).
Like-named read-outs stand apart in the source and are kept apart here.

Tests used:
[1] = system: AI-2 QS in WHQ02 (E. coli BL21 ΔTolC pWHQ01); assay: Cell-based AI-2-mediated QS interference assay in WHQ02; settings: Escherichia coli
Excerpt: (§1) All chemicals were purchased from Sigma-Aldrich (St. Louis, MO, USA) if not otherwise stated. DPD was purchased from […] ZZBIO Co., Ltd. (Shanghai, China). The Kinase-Glo Max Luminescent kinase assay kit was purchased from Promega Corp. (Madison, WI, USA). The NTA sensor chip was purchased from GE Healthcare (Chicago, IL, USA). All compounds selected by virtual screening were purchased from Topscience Biotechnology Co., Ltd. (Shanghai, China). The QS reporter strains WHQ01 (S. typhimurium ATCC 202165 ΔTolC pWHQ01) and WHQ02 (E. coli BL21 ΔTolC pWHQ01) were donated by Huiqi Wen (Institute of Microbiology and Epidemiology, Academy of Military Sciences, Beijing, China). The plasmid pWHQ01 was constructed by cloning of lsr promoters and the luxCDABE luminescent gene. BamHI, XhoI, EcoRI, and NotI restriction endonucleases were purchased from New England Biolabs (Ipswich, MA, USA). pET-28a and pGEX-4T-1 were purchased from Novagen (Madison, WI, USA). E. coli BL21 (DE3) was purchased from TransGen Biotech Co., Ltd. (Beijing, China). The Ni-NTA column and GST Gravity column were purchased from Sangon Biotech (Shanghai, China). Sodium dodecyl sulfate-polyacrylamide gel electrophoresis (SDS-PAGE) gels and the Bradford Protein Assay Kit were purchased from Thermo Fisher Scientific (Waltham, MA, USA). Ultrafiltration centrifuge tubes were purchased from Millipore (Bedford, MA, USA). Dialysis bags were purchased from Beijing Solarbio Science and Technology Co., Ltd. (Beijing, China).
(§2) WHQ01 or WHQ02 was cultured overnight and diluted 1:100 in fresh LB supplemented with 100 µg/mL ampicillin and grown at 30 °C until the logarithmic phase (OD600 = 0.4–0.6). The bacterial culture was centrifuged at 4000× g for 5 min and the pellet was resuspended with fresh LB to prepare a suspension of 2 McFarland standard, which was added to a 96-well plate. In the experimental group, 62 compounds with final concentrations ranging from […] were added to obtain a total volume of 100 µL. A negative control comprising 100 µL of LB with DMSO of the same volume and a positive control comprising 100 µL of LB supplemented with 2% glucose and DMSO of the same volume were also added. Then, bacteria were grown at 37 °C for 3 h. The […] of WHQ01 or WHQ02 was directly regulated by the Lsr promoters to reflect the strength of AI-2 QS. Luminescence was measured by the Enspire 2300 microplate reader. To further study the effect of compounds on bacterial growth, a suspension containing 1 × 10^8 CFU/mL of WHQ01 or WHQ02 (0.5 McFarland standard) was diluted 1:100 with LB and added to a 96-well plate. Compounds were added to the 96-well plate at a final concentration of 100 µM and diluted in a gradient. DMSO of the same volume was added as the control group. The plate was grown at 37 °C for 18–24 h. The OD600 values were recorded using the Enspire 2300 microplate reader. The experiment was performed three times.

[2] = system: AI-2 QS in WHQ01 (S. typhimurium ATCC 202165 ΔTolC pWHQ01); assay: Cell-based AI-2-mediated QS interference assay in WHQ01; settings: Salmonella enterica, read-out: WHQ01 (IC50)
Excerpt: as §1, §2

[3] = target: T1, LsrK (Salmonella typhimurium, UniProt Q8ZKQ6); assay: LsrK inhibition assay (Kinase-Glo luminescence); type: biochemical, S. typhimurium; settings: for inhibition at 200 µM: compound at 200 μM
T1 construct: hexa-histidine (C); made in house; host or cells: E. coli BL21(DE3), pET-28a
T1 sequence (Q8ZKQ6 whole entry): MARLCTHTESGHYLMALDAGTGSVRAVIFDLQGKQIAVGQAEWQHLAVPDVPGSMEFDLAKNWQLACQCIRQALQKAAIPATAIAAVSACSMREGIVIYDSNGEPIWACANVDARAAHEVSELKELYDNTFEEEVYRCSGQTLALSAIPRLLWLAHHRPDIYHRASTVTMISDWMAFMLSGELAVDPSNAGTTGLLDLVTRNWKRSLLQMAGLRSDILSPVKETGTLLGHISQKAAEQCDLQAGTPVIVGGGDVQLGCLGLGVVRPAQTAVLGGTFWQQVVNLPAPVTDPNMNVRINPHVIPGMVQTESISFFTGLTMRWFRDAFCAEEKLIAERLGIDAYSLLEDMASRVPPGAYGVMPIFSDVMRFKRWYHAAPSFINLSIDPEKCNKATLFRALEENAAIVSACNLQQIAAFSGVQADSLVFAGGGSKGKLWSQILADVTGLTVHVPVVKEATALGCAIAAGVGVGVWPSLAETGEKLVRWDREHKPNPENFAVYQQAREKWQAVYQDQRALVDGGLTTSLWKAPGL
Procedure: (§3) To express LsrK or LsrK-N with a hexa-histidine tag at the C-terminus, the LsrK or LsrK-N encoding gene of S. typhimurium was amplified using primers carrying restriction endonuclease sites for BamHI and XhoI, respectively. The amplified product was cloned into the expression vector pET-28a with a C-terminal hexa-histidine tag and transfected into E. coli BL21(DE3) cells. The transformed cells were selected on LB agar plates containing 50 µg/mL kanamycin. The recombinant isolates were grown at 37 °C to the mid-log exponential phase. Protein synthesis was induced by 0.5 mM IPTG. After overnight growth, the cells were pelleted at 13,000× g for 10 min at 4 °C, resuspended in lysis buffer (50 mM NaH2PO4, 300 mM NaCl, and pH 8.0), and sonicated on ice for 10 cycles with a 30-s pulse and 30-s pause. The bacterial lysate was then centrifuged at 4 °C, 13,000× g for 10 min, and the supernatant passed through a 0.22 µm filter.
The LsrK inhibition assay was performed as described previously. The 62 selected compounds were dissolved in DMSO at a concentration of 2 mM. The assay was carried out with final concentrations of 300 nM LsrK, 100 μM ATP, and 300 μM DPD in a reaction buffer containing 25 mM TEA, pH 7.4, 800 μM MgCl2, and 0.1 mg/mL BSA. Specifically, 10 μL DPD, 10 μL LsrK, and 5 μL of the compound were added to a 96-well plate, and a 25 μL ATP or 25 μL reaction buffer was added after 30 min of incubation. The plate was incubated for 10 min at 37 °C, then 50 μL of kit reagent was added and the plate was incubated at 37 °C for 15 min. The luminescence signal was measured by the Enspire 2300 microplate reader (PerkinElmer). To confirm the activity of hits selected by primary screening, dose-response experiments were performed (200–6.25 µM). The inhibition % for each tested compound was determined as described previously. The IC50 values were calculated using the four logistic parameters.

[4] = target: T1, LsrK; assay: LsrK inhibition assay (Kinase-Glo luminescence); type: biochemical, S. typhimurium; settings: dose-response curves at 50, 100 and 150 μM ATP
[5] = target: T1, LsrK; assay: SPR assay on immobilized LsrK; type: binding, S. typhimurium
Procedure: as §3
(§4) Serial dilutions of compound 4171-0375 were injected, ranging in concentrations from 100 to 1.56 µM, an intermediate concentration of 12.5 µM was set as a repeat, and 1× PBS-T with 5% v/v DMSO was set as a control group. The association time was set to 120 s, the dissociation time was set to 130 s, and the flow rate was set to 30 µL/min. The resulting data were fit to the affinity binding model using Biacore Evaluation Software (GE Healthcare).

[6] = target: T2, LsrK-N protein (HPr binding domain, residues 1-260) (Salmonella typhimurium, UniProt Q8ZKQ6); assay: SPR assay on immobilized LsrK-N; parameters: species or system S. typhimurium
T2 construct: hexa-histidine (C); made in house; host or cells: E. coli BL21(DE3), pET-28a
T2 sequence (Q8ZKQ6 1-260): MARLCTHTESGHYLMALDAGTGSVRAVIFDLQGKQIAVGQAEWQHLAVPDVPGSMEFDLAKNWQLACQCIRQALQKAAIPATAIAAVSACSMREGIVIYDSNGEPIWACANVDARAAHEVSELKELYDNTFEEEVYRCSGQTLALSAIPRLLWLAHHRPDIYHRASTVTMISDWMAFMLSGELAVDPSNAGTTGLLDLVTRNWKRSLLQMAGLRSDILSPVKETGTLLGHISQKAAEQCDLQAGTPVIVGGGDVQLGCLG
Procedure: as §3, §4

[7] = dose-response 200–6.25 µM, 100 μM ATP, 300 μM DPD, mean ± SD, n = 3, read-out: LsrK (IC50)
[8] = dose-response assay, read-out: LsrK inhibition IC50

SMILES	IC50 ([1]; BL21, read-out: WHQ02 (IC50))	IC50 [2]	inhibition at 200 µM ([3]; mean ± SD, n = 3)	IC50 [3, 7]	ATP competition (mode of inhibition) [4]	IC50 ([1]; BL21, read-out: AI-2 QS inhibition IC50 against WHQ02)	Kd ([5]; His-tagged LsrK on NTA chip, Biacore 8K, affinity model)	binding and dissociation behaviour on LsrK (SPR) ([5]; sensorgram, in words)	IC50 [3, 8]	Kd ([6]; His-tagged LsrK-N on NTA chip, Biacore 8K, affinity model)	binding and dissociation behaviour on LsrK-N (SPR) ([6]; sensorgram, in words)
COc1cc(/C=C2/SC(=S)N(c3cccc(C(F)(F)F)c3)C2=O)ccc1OCC(=O)O [Compound 3229-1889]	15 ± 1.24 µM	24.7 ± 1.42 µM	63 ± 4%	121 ± 5.37 µM	–	–	–	–	–	–	–
CCOc1cc(/C=N/NC(=N)N)ccc1OCc1ccc(Cl)cc1 [Compound 4171-0375]	30.1 ± 1.62 µM	42.9 ± 1.63 µM	98 ± 7%	26.1 ± 2.94 µM	non-ATP competitive inhibitors	29.1 ± 1.23 µM	94.5 µM	quickly bound and dissociated	< 100 µM	25.1 µM	quickly bound and dissociated
CCOc1cc(C2NC(C(=O)O)CS2)ccc1OCc1c(F)cccc1Cl (stereo not shown) [Compound 8012-5390]	17.7 ± 0.98 µM	23.3 ± 1.05 µM	60 ± 4%	147 ± 5.58 µM	–	–	–	–	–	–	–
NCCc1cn(Cc2ccc(C(F)(F)F)cc2)nn1 [Compound 8020-4294]	67.2 ± 4.32 µM	24.9 ± 1.1 µM	65 ± 9%	148 ± 6.92 µM	–	–	–	–	–	–	–
Cc1c(CC(=O)O)c(=O)oc2c(C)c(OCc3ccc(F)cc3F)ccc12 [Compound D715-0257]	22.3 ± 2.15 µM	21.1 ± 1.18 µM	57 ± 7%	153 ± 5.43 µM	–	–	–	–	–	–	–
Cc1ccc(NC(=O)C[C@H](C)n2ccnc2)cc1Cl [Compound G268-0878]	42.3 ± 1.42 µM	30.6 ± 1.26 µM	58 ± 5%	129 ± 6.14 µM	–	–	–	–	–	–	–
CN1CCN(C(=O)c2ccc(NCc3ccc(F)cc3)c(S(=O)(=O)Nc3cccc(C(F)(F)F)c3)c2)CC1 [Compound K659-0421]	17 ± 0.37 µM	7.97 ± 0.38 µM	75 ± 8%	73.7 ± 5.33 µM	non-ATP competitive inhibitors	–	–	–	< 100 µM	–	–
